From patent US11058758B2, “TH1-inducing adjuvant comprising combination of different nucleic acid adjuvants, and use of same” (National Institutes of Biomedical Innovation, Health and …, priority 2014, dated 2021)

How the values were obtained:
[1] = tested on: IRF3/7, STING, MyD88, IL-12, and type I IFN signaling
Experimental: The vertical axis of the left panel indicates the concentration of IFNγ (ng/ml), and the vertical axis of the right panel indicates the concentration of IL-13 (ng/ml). […] The splenocytes were stimulated for 48 hours with OVA.
On day 17, OVA specific sera IgG2c and IgG1 were measured by ELISA.
The vertical axis of the left panel indicates the concentration of IFNγ (ng/ml), and the vertical axis of the right panel indicates the concentration of IL-13 (ng/ml). […] (D) The splenocytes were stimulated for 48 hours with OVA proteins.
On day 17, OVA specific serum IgG2c and IgG1 were measured by ELISA. Further, splenocytes were stimulated for 48 hours with OVA to measure IFNγ production by ELISA.
On day 17, OVA specific sera IgG2c and IgG1 were measured by ELISA. Further, splenocytes were stimulated for 48 hours with an OVA protein to measure IFNγ production by ELISA.

mice = assay: OVA specific serum IgE after immunization; conditions: i.m. day 0 and day 10, serum day 17
C57BL/6J mice = assay: Intramuscular OVA immunization of mice: serum antibodies and splenocyte cytokines; assay type: in vivo, mouse; conditions: for serum anti-OVA IgG1 titer / OVA-specific IL-13 production by splenocytes: i.m. day 0 and day 10 with OVA; for serum anti-OVA IgG1 titer: serum day 17; for OVA-specific IL-13 production by splenocytes: splenocytes day 17, OVA 48 hours
Experimental: Mice were immunized intramuscularly on day 0 and day 10 with K3 CpG (10 μg), 3′3′/2′3′-cGAMP (1 μg), c-di-GMP (1 μg), DMXAA (50 μg), or OVA (10 μg) comprising or not comprising K3+3′3′/2′3′-cGAMP/c-di-GMP/DMXAA. On day 17, OVA specific sera IgG1 and IgG2c were measured by ELISA.
(B—C) mice were immunized intramuscularly on day 0 and day 10 with K3 CpG (10 μg), 3′3′/2′3′-cGAMP (1 μg), c-di-GMP (1 μg), DMXAA (50 μg), or OVA (10 μg) comprising or not comprising K3+3′3′/2′3′-cGAMP/c-di-GMP/DMXAA. Splenocytes were stimulated for 48 hours with OVA (10 μg/ml) protein. Production of IFNγ and IL-13 was measured by ELISA.
On day 17, the splenocytes were isolated and stimulated for 48 hours with a MHC class I (OVA257) or a MHC class II (OVA323) specific OVA or an OVA peptide.
On day 17, OVA specific sera IgG1 and IgG2c were measured by ELISA as previously described [Kuroda et al., Immunity. (2011) 34; 514-526]. The secondary antibodies used in ELISA of IgG2c and IgG1 were horseradish peroxidase conjugate goat anti-mouse IgG2c and IgG1 (Bethyl Laboratories, Montgomery, Tex.). On day 17, splenocytes were collected to prepare a single cell suspension using gentle MACS dissociator (miltenyi Biotech, Gladbach, Germany). […] IFNγ and IL-13 production was measured by ELISA.

| SMILES | dependency of Th2 responses on type I IFN signaling ([1]; IFNAR KO mice) | dependency of induced antibody responses on type I IFN signaling ([1]; IFNAR KO mice) | dependency of induced T cell responses on IRF3/7 and MyD88 ([1]; IRF3/7 DKO and MyD88 KO mice) | dependency of induced antibody and T cell responses on STING ([1]; Tmem173gt mice) | IgE of the serum in mice immunized with OVA (mice) | adjuvant type (C57BL/6J mice; OVA immunization, antibody and T cell responses) | serum anti-OVA IgG1 titer (C57BL/6J mice) | OVA-specific IL-13 production by splenocytes (C57BL/6J mice) |
| --- | --- | --- | --- | --- | --- | --- | --- | --- |
| Nc1nc2c(ncn2[C@@H]2O[C@@H]3COP(=O)(O)O[C@H]4[C@@H](O)[C@H](n5cnc6c(N)ncnc65)O[C@@H]4COP(=O)(O)O[C@H]3[C@H]2O)c(=O)[nH]1 [cGAMP, 3′3′-cGAMP] | not dependent thereon | dependent on type I IFN signaling | partially dependent on IRF3/7 and surprisingly dependent on MyD88 | completely dependent on STING | induce IgE | type 2 adjuvant | high | production of OVA-specific IL-13 |
| Cc1ccc2c(=O)c3cccc(CC(=O)O)c3oc2c1C [DMXAA] |  |  |  |  |  |  | high | production of OVA-specific IL-13 |
| Nc1nc2c(ncn2[C@@H]2O[C@@H]3COP(=O)(O)O[C@H]4[C@@H](O)[C@H](n5cnc6c(=O)[nH]c(N)nc65)O[C@@H]4COP(=O)(O)O[C@H]3[C@H]2O)c(=O)[nH]1 [c-di-GMP] |  |  |  |  |  |  | high | production of OVA-specific IL-13 |
